Assay results published in ChEMBL document CHEMBL1130157 (J Med Chem, 1997).

Assays:
[1] = biological target: GABA-A receptor; anion channel; test: Displacement of [3H]flunitrazepam from rat brain GABA-A Benzodiazepine receptor
Translocator protein = Translocator protein (Rattus norvegicus, UniProt P16257); test: Displacement of Ro 5-4864 from peripheral (renal cell) Benzodiazepine receptor
[2] = biological target: GABA-A receptor; anion channel (Rattus norvegicus) (UniProt O09028+P15431+P18506+P18508+P19969+P20236+P23574+P23576+P28471+P28473+P30191+P62813+P63079+P63138+Q91ZM7+Q9ES14); test: Percentage inhibition of [3H]flunitrazepam binding to rat brain GABA-A benzodiazepine receptor at 40 uM
[3] = biological target: T1, GABA A receptor alpha-2/beta-2/gamma-2 (Homo sapiens, UniProt P18507+P47869+P47870); test: Potentiation of GABA-evoked Cl- currents in Xenopus oocytes expressing human alpha-2-beta-2-gamma-2 subunits; format: functional, cell-based, Oocyte
T1 sequence (P47870 whole entry): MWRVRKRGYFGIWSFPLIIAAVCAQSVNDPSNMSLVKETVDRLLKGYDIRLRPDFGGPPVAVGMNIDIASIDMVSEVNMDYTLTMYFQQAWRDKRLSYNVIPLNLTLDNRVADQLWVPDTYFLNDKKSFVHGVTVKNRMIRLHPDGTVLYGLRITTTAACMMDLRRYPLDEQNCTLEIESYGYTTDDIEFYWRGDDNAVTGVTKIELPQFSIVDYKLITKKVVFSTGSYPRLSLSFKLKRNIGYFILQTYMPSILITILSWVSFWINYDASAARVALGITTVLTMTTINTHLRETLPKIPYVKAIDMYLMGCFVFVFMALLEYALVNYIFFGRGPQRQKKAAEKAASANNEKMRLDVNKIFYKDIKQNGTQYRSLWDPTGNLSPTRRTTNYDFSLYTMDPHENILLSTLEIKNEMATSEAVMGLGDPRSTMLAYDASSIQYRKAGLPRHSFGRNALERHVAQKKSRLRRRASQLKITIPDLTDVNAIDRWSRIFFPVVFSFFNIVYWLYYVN
T1 sequence (P18507 whole entry): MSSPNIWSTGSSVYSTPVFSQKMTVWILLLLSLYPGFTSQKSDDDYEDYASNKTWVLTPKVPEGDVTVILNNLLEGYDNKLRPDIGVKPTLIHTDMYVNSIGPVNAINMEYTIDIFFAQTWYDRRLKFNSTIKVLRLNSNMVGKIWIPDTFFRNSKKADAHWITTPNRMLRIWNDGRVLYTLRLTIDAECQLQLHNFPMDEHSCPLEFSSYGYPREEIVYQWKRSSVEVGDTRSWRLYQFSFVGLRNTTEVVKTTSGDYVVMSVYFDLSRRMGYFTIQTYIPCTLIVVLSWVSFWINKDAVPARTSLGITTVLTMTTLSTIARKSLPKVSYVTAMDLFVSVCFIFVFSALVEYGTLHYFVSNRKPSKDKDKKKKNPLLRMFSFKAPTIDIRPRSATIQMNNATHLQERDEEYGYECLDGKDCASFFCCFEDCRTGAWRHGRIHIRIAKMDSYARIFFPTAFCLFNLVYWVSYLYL
T1 sequence (P47869 whole entry): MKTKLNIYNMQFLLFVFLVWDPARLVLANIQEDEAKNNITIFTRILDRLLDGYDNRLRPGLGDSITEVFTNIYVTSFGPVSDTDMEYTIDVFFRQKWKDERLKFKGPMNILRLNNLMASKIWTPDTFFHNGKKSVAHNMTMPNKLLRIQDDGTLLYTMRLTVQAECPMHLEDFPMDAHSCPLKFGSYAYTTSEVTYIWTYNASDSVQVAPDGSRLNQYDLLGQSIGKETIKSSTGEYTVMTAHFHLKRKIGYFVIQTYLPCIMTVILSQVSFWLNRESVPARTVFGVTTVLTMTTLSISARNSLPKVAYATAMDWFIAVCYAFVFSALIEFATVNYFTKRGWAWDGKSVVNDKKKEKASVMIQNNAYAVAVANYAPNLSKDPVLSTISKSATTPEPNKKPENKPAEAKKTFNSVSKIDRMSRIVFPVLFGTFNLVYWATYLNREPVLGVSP

[4] = biological target: GABA A receptor alpha-2/beta-2/gamma-2 (Homo sapiens) (UniProt P47870+P18507+P47869); test: Maximal potentiation of GABA-evoked Cl- currents in Xenopus oocytes expressing human alpha-2-beta-2-gamma-2 subunits; format: functional, cell-based; details: Oocyte

Chain of Translocator protein (P16257 whole entry, looked up): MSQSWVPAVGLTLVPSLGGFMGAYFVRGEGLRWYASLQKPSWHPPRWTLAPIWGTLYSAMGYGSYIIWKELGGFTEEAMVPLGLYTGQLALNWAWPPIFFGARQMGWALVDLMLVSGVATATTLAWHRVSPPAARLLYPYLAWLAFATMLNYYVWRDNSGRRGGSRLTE

Row | Compound | IC50 [1] [nM] | IC50 (Translocator protein) [nM] | inhibition [2] [%] | EC50 [3] [nM] | Efficacy [4] [%]
1 | CCCN(CCC)C(=O)Cc1c(-c2ccccc2)nc2ccc(Br)cn12 | 116 | 14.5 | – | – | –
2 | CCOC(=O)Cc1c(-c2ccccc2)nc2ccc(C)cn12 | 1390 | > 100000 | – | – | –
3 | CCN(CC)C(=O)c1c(-c2ccc(Cl)cc2)nc2ccc(Cl)cn12 | 8380 | 2040 | – | – | –
4 | CCCCOC(=O)CCc1c(-c2ccccc2)nc2ccc(Cl)cn12 | 1180 | > 100000 | – | – | –
5 | CCCN(CCC)C(=O)Cc1c(-c2ccccc2)nc2ccc(C)cn12 | 125 | 34.5 | – | – | –
6 | CCOC(=O)CCc1c(-c2ccccc2)nc2ccc(Cl)cn12 | 1110 | > 100000 | – | – | –
7 | O=C(c1c(-c2ccc(Cl)cc2)nc2ccc(Cl)cn12)N1CCCC1 | 2980 | > 100000 | – | – | –
8 | CCCN(CCC)C(=O)Cc1c(-c2ccc(Cl)cc2)nc2ccc(Cl)cn12 [ALPIDEM] | 26 | 7.9 | – | – | –
9 | CCCN(CCC)C(=O)Cc1c(-c2ccccc2)nc2c(Cl)cc(Cl)cn12 | – | 12 | 46 | – | –
10 | CCOC(=O)Cc1c(-c2ccccc2)nc2ccc(Cl)cn12 | 1170 | > 100000 | – | – | –
11 | CCCN(CCC)C(=O)Cc1c(-c2ccccc2)nc2ccc([N+](=O)[O-])cn12 | 2740 | 11.8 | – | – | –
12 | CCCN(CCC)C(=O)Cc1c(-c2ccc(Cl)cc2)nc2ccc(Br)cn12 | 58 | 12 | – | – | –
13 | CCCN(CCC)C(=O)CCc1c(-c2ccccc2)nc2ccc(Cl)cn12 | 308 | 3270 | – | – | –
14 | O=C(Cc1c(-c2ccc(Cl)cc2)nc2ccc(Cl)cn12)N1CCCCC1 | 240 | 18.7 | – | – | –
15 | O=C(Cc1c(-c2ccc(Cl)cc2)nc2ccc(Cl)cn12)N1CCCC1 | 92 | 287 | – | 6600 | 71
16 | CCCN(CCC)C(=O)Cc1c(-c2ccc(Cl)cc2)nc2c(Cl)cc(C(F)(F)F)cn12 | – | 37 | 0 | – | –

Row | Compound | IC50 [1] [nM] | IC50 (Translocator protein) [nM] | inhibition [2] [%] | EC50 [3] [nM] | Efficacy [4] [%]
17 | CCOC(=O)Cc1c(-c2ccc(Cl)cc2)nc2ccc(Cl)cn12 | 695 | > 100000 | – | – | –
18 | CCOC(=O)c1c(-c2ccc(C)cc2)nc2ccc(C)cn12 | 1150 | > 100000 | – | – | –
19 | CCCCOC(=O)Cc1c(-c2ccccc2)nc2ccc(Cl)cn12 | 2500 | > 100000 | – | – | –
20 | CCCN(CCC)C(=O)Cc1c(-c2ccc(Cl)cc2)nc2c(Cl)cc(Cl)cn12 [ALPDEM] | – | 20 | 0 | – | –
21 | CCCN(CCC)C(=O)c1c(-c2ccc(Cl)cc2)nc2ccc(Cl)cn12 | – | 426 | – | – | –
22 | CCCCOC(=O)Cc1c(-c2ccc(Cl)cc2)nc2ccc(Cl)cn12 | 2780 | > 100000 | – | – | –
23 | CCOC(=O)c1c(-c2ccccc2)nc2ccc(Cl)cn12 | 2120 | > 100000 | – | – | –
24 | CCCN(CCC)C(=O)Cc1c(-c2ccccc2)nc2ccccn12 | 464 | 80 | – | – | –
25 | Cc1ccc(-c2nc3ccc(C)cn3c2CC(=O)N(C)C)cc1 [ZOLPIDEM] | – | 4700 | – | – | 150
26 | CCCN(CCC)C(=O)Cc1c(-c2ccccc2)nc2c(Br)cc(C)cn12 | – | 19 | 78 | – | –
27 | CCCN(CCC)C(=O)Cc1c(-c2ccccc2)nc2ccc(Cl)cn12 | 86 | 4 | – | 130 | 139
28 | CCCCOC(=O)Cc1c(-c2ccccc2)nc2ccc(C)cn12 | 3150 | > 100000 | – | – | –
29 | CCCN(CCC)C(=O)Cc1c(-c2ccccc2)nc2c(C)cc(Br)cn12 | – | 13.5 | 68 | – | –
30 | CCCN(CCC)C(=O)Cc1c(-c2ccccc2)nc2ccc(I)cn12 | 286 | 23 | – | – | –
31 | CCCN(CCC)C(=O)Cc1c(-c2ccccc2)nc2ccc(OC)cn12 | 2830 | 33.6 | – | – | –
32 | CCCN(CCC)C(=O)Cc1c(-c2ccc(Cl)cc2)nc2c(Br)cc(Br)cn12 | – | 55.3 | 17 | – | –
